Details of data set [1]: method as in Yao et al., 2014. The following applies: PBS, within 24 h, ref Yao et al., 2014; cited from earlier work.
Data set [2] has as its system rat osteoporosis model (OVX). Briefly: Anti-osteoporotic effect in OVX rats: histological analysis (H&E) of femur. The data set is classed as in vivo. As to conditions: compared with the OVX group. The procedure:
Bilateral ovariectomy (OVX) was performed to establish the rat osteoporosis model according to earlier work (Shakir et al., [2015]). Next, 24 rats were randomly divided into four groups (n = 6): sham operation group (Sham), OVX model group (OVX), free AS group (AS) and AS-AL-mPEG-PLGA group. Rats were anesthetized by intraperitoneal injection of pentobarbital sodium (1%, 8 mL/kg). Later, the rats were placed on a sterile table and fixed prone, while the surgical site on the back was shaved and sterilized with iodophor. Double incisions were taken under the costal back to separate the muscular layer and retroperitoneum into the abdominal cavity. The ovaries were found in the adipose tissue below the kidneys and were removed with bent tweezers and ligated before complete excision of the bilateral ovaries. After confirming that there was no active bleeding, the muscle layer and skin were interlocked, whilst the wound was disinfected. In the Sham group, only a small amount of adipose tissue around the ovaries was removed without damage to both ovaries. The operation was done gently while attention was paid to the sterility principle. After the operation, the rats were kept warm, while drug administration began 4 weeks afterwards at once a day for 12 weeks. Rats in the groups Sham and OVX were given 2 mL of normal saline via the oral route. […]

The subject of data set [3] is rat osteoporosis model (OVX). Briefly: Anti-osteoporotic effect in OVX rats: micro-CT analysis of femur. In kind it is in vivo. The procedure: (§1) Bilateral ovariectomy (OVX) was performed to establish the rat osteoporosis model according to earlier work (Shakir et al., [2015]). Next, 24 rats were randomly divided into four groups (n = 6): sham operation group (Sham), OVX model group (OVX), free AS group (AS) and AS-AL-mPEG-PLGA group. Rats were anesthetized by intraperitoneal injection of pentobarbital sodium (1%, 8 mL/kg). Later, the rats were placed on a sterile table and fixed prone, while the surgical site on the back was shaved and sterilized with iodophor. Double incisions were taken under the costal back to separate the muscular layer and retroperitoneum into the abdominal cavity. The ovaries were found in the adipose tissue below the kidneys and were removed with bent tweezers and ligated before complete excision of the bilateral ovaries. After confirming that there was no active bleeding, the muscle layer and skin were interlocked, whilst the wound was disinfected. In the Sham group, only a small amount of adipose tissue around the ovaries was removed without damage to both ovaries. The operation was done gently while attention was paid to the sterility principle. After the operation, the rats were kept warm, while drug administration began 4 weeks afterwards at once a day for 12 weeks. Rats in the groups Sham and OVX were given 2 mL of normal saline via the oral route. Rats in the AS and AS-AL-mPEG-PLGA groups orally received 2 mL of free AS (dispersed in CMC-Na solution, 150 mg/kg) and AS-AL-mPEG-PLGA solution (150 mg/kg) every day, respectively.
In order to evaluate the bone microstructure, the right femur was analyzed with high-resolution micro-CT using the micro-CT imaging system (Siemens, Inveon) according to the method described in the literature (Zhang et al., [2012]). The femur was fixed in the centrifuge tube by the long axis, while the surrounding was filled with gauze. Quantitative parameters of bone microstructure including percent bone volume (BV/TV), trabecular thickness (Tb.Th), trabecular number (Tb.N), trabecular separation (Tb.Sp), structural model index (SMI) and bone mineral density (BMD) were measured. All the digital data, 2 D and 3 D images were provided by the built-in software of micro-CT (Siemens, Inveon).

In data set [4] the test system is rat osteoporosis model (OVX). Briefly: Anti-osteoporotic effect in OVX rats: serum biochemical analysis (ELISA). The data set is classed as in vivo. The procedure:
as §1
All the rats were sacrificed and blood samples were collected. The serum levels of TRACP-5b, BGP, IL-6 and CTX-1 were determined by enzyme-linked immunosorbent assay (ELISA) to evaluate bone absorption and bone formation. The operation steps were strictly in accordance with the instructions of the kits. Finally, the absorbances of the samples were measured at 450 nm with the microplate reader, so as to calculate the concentration of each biochemical index in the serum.
(An ELISA detects its analyte on a solid surface through an enzyme-linked reagent.)

The nature of data set [5]: Drug release study in vitro by dialysis. In kind it is physicochemical. The following applies: within 48 h, 37 °C. As for the experimental part:
The release of AS in vitro was determined by dialysis (Algul et al., [2018]). AS free drug dispersion solution (5 mg/mL, 1 mL) and AS-AL-mPEG-PLGA containing the same volume and concentration of AS were added into dialysis bags (MV 3500 D, 25 mm × 5 m) accordingly. The dialysis bags were placed in a conical flask after their two sections have been fastened together. Subsequently, 100 mL releasing media (pH 1.2 HCl solution, double distilled water and pH 7.4 PBS solution) were added consequently, before the conical flask was placed in a thermostatic water bath oscillator (37 ± 0.5 °C, 100 rpm) for in vitro release experiment. Samples were taken from the conical flask after 0.083, 0.25, 0.5, 0.75, 1, 1.5, 2, 3, 4, 6, 8, 10, 12, 24, 36, 48, 60, 72, 84 and 96 h of oscillation, respectively, while the same stable release medium with the same volume was added accordingly to maintain its dynamic balance. The samples were centrifugated at 10,000 rpm for 10 min before injection into HPLC for analysis according to the chromatographic conditions under the section of “HPLC analysis of AS.” Finally, the peak areas were recorded, and the concentrations of AS were substituted into the standard curve to calculate the cumulative drug release rate.

Data set [6] can be described thus: Pharmacokinetic study in rats. The data set is classed as in vivo, SD rats. The following applies: oral. As for the experimental part:
Twelve SD rats (male, 200 ± 20 g) were maintained in the laboratory environment for 3 days before experiments. The rats were randomly divided into the free AS group and AS-AL-mPEG-PLGA group with 6 rats in each group. The rats have fasted from food for 12 h with free access to water before the experiment. Rats in the two groups were orally given free AS (dispersed CMC-Na solution) and AS-AL-mPEG-PLGA of equivalent AS dose (150 mg/kg). At each point of 0.25, 0.5, 0.75, 1, 1.5, 2, 2.5, 3, 4, 6, 8, 10, 12 and 24 h after administration, blood samples (0.4 mL) were collected from the orbit of rats with capillaries. The blood samples were placed in a 1.5 mL EP tube filled with heparin sodium and centrifuged at 3700 rpm for 10 min. Aliquot (200 μL) of supernatant was collected into another clean 1.5 mL EP tube. Next, 600 μL of methanol was added into the tube before vortexing for 1 min. The mixture was centrifuged at 10,000 rpm for 10 min and the methanol layer was […] prior to drying with N2 at 37 °C. The residue was dissolved with 100 μL methanol coupled with vortexing for 1 min, and then 10 min of centrifugation at 10,000 rpm. Then, the supernatant was taken and analyzed with HPLC. The peak areas of AS and internal standard were recorded and substituted into the standard curve in vivo to subsequently calculate the concentration of AS.

On the set-up of data set [7]: method as in Zhang et al., 2007. The following applies: after p.o. administration, ref Zhang et al., 2007; cited from earlier work.
Data set [8] can be described thus: Detection of AS content in rats' bones. As to conditions: femur homogenate (1 g/mL saline) after the pharmacokinetic experiment, oral 150 mg/kg. The data set is classed as in vivo. As for the experimental part:
After the pharmacokinetic experiment, the rats were sacrificed and the femurs were homogenized with normal saline at a ratio of 1 g/mL. We then centrifugated the homogenized samples at 10,000 rpm for 10 min, before treatment of the supernatant (200 μL) via the same method as described in the section “Pharmacokinetic study in rats.” Finally, the samples were analyzed via the HPLC method to detect the AS concentration in rats’ bones.

[9] abbreviates: oral 150 mg/kg daily, 12 weeks, P < .01.

Take `CN(C)c1ccc(O)c2c1C[C@H]1C[C@H]3[C@H](N(C)C)C(O)=C(C(N)=O)C(=O)[C@@]3(O)C(O)=C1C2=O` [free minocycline, minocycline]: in data set [1], the minocycline released was around 100%.

Take Astragaloside: in data set [2], the “adipose tissue in femur, H&E staining” value was “relatively less adipose tissue”. In data set [3] (compared with OVX group), the “bone microstructure in 2D and 3D micro-CT images” value is “significantly reduce osteoporosis and increase dense bone mass”. In data set [3] (oral 150 mg/kg daily, 12 weeks), the “BMD (bone mineral density)” value is given as “notably increased”, the “BV/TV (percent bone volume)” value is listed as “notably increased”, the “SMI (structural model index)” value is listed as “substantially reduced” and the “Tb.N (trabecular number)” value was “notably increased”. In addition, in data set [3] (oral 150 mg/kg daily, 12 weeks), the “Tb.Sp (trabecular separation)” value is reported as “substantially reduced” and the “Tb.Th (trabecular thickness)” value is “notably increased”. Besides, in data set [4] (setting [9]), the “expression level of IL-6 compared with OVX group” value is reported as “decreased significantly”, the “serum level of BGP compared with OVX group” value is given as “significantly decreased”, the “serum level of CTX-1 compared with OVX group” value is given as “significantly decreased” and the “serum level of TRACP-5b compared with OVX group” value is “significantly decreased”. Also, the “serum level of IL-6” value in data set [4] (oral 150 mg/kg once a day for 12 weeks) turned out to be 53.88 ± 4.23 pg/mL. Also, the cumulative release rate in data set [5] (double distilled water) stood at 93.85%. In addition, in data set [5] (pH 1.2 HCl solution), the cumulative release rate was 96.87%. The same compound gave a cumulative release rate in data set [5] (pH 7.4 PBS solution) of 95.95%. The “mean plasma concentration at 1440 min” value in data set [6] (150 mg/kg) was 260 ± 50 ng/mL. Also, in data set [6] (AS dose 150 mg/kg), the AUC0-t was 1520.45 ± 45.19 µg·min/mL, the peak concentration (Cmax) amounted to 5250 ± 500 ng/mL, the MRT was 5.55 ± 0.143 h and the T1/2 turned out to be 6.5952 ± 0.4407 h. The Tmax in data set [6] (AS dose 150 mg/kg) was found to be 2 ± 0 h. Also, in data set [7], the absolute bioavailability was 7.4%. Besides, in data set [8], the “concentration of AS in bone” value was 1950 ± 170 ng/mL.

By Cmax is commonly meant the highest concentration seen after dosing. As a reminder, the MRT is a mean duration of stay, worked out from the concentration-time curve. The term Tmax denotes the time from dosing to the highest level.

The values are drawn from publication PMC9310824 (Drug Delivery, 2022).
